Reference: patent US9505743B2, “Matrix metalloproteinase inhibitors and methods for the treatment of pain and other diseases” (AQUILUS PHARMACEUTICALS, INC., priority 2012, dated 2016)
pIC50: −log10 of the molar value.

What was measured:
[1] = In-vitro human microsomal stability; format: in vitro ADME; details: human microsomes, compound 1 microMoles, at T = 60 minutes
Description: (§1) Human and Rat microsomal stability was determined for select compounds following the method of Houston (Houston, J B; Biochem. Pharmacol. 47, (1994), 1469). 1 μM concentration of compound and separate human and Rat microsomes (0.3 mg/mL, BD bioscience) were used in the in-vitro assay. To ensure proper energy supply for microsomal degradation of compound, an energy regenerating system comprised of 100 mM potassium phosphate, 2 mM NADPH, 3 mM MgCl2, pH=7.4 and the microsomal protein is added to each sample and the resulting suspension is then incubated in duplicate for 60 min at 37° C. in a rotary shaker. A control is run for each test agent in duplicate omitting NADPH to detect NADPH-free degradation. At T=0 and T=60 min., an aliquot is removed from each experimental and control reaction and then mixed with an equal volume of ice-cold Stop Solution (consisting of 0.3% acetic acid in acetonitrile containing haloperidol and diclofenac as internal standards). Stopped reactions are then incubated for at least ten minutes at −20° C., and an additional volume of water is then added. The samples are then centrifuged to remove precipitated protein, and the supernatants are then analyzed by LC-MS/MS to determine the percentage of compound remaining. The LC-MS/MS system used was an Agilent 6410 mass spectrometer coupled with an Agilent 1200 HPLC and a CTC PAL chilled autosampler, all controlled by MassHunter software (Agilent), or an ABI2000 mass spectrometer coupled with an Agilent 1100 HPLC and a CTC PAL chilled autosampler, all controlled by Analyst software (ABI). After separation on a C18 reverse phase HPLC column (Agilent, Waters, or equivalent) using an acetonitrile-water gradient system, peaks were analyzed by mass spectrometry (MS) using ESI ionization in MRM mode. Verapamil (high metabolized) and Warfarin (low metabolized) are used as controls to test the activity of the microsomal proteins. Table 15 and 16 below show the microsomal stability of select compounds in both human and Rat microsomes.

[2] = In-vitro rat microsomal stability; format: in vitro ADME; details: rat microsomes, compound 1 microMoles, at T = 60 minutes
Description: as §1

[3] = biological target: Catalytic domain of MMP-13 (human recombinant) (Homo sapiens (Human), UniProt P45452); experiment: MMP-13 inhibition assay; format: biochemical
Description: Catalytic domain of MMP-13 (human recombinant) enzyme was then added to the compound solution. […] The time-dependent increase in fluorescence is measured at the 355 nm excitation and 405 nm emission by automatic plate multireader.

[4] = In vivo rat pharmacokinetics, oral administration; details: plasma, PO 1.0 mg/kg, male Lewis rats, mean
Description: Six (6) male Lewis rats were used. Fasting was conducted at least 16 hours prior to dose administration. Food was returned at approximately 4 hours post dose. The animals were placed into 2 groups of 3 animals per group. The oral (PO) formulation for Groups 1 & 2 were prepared on the day of dosing at a target concentration of 0.5 mg/mL in 0.5% Methylcellulose (400 cps) to produce a white, homogeneous suspension. Dosing was performed as outlined in Table 24:
Each animal in Group 1 received prepared compound (56) by oral dose administration at a target dose level of 1.0 mg/kg and at a dose volume of 2 mL/kg. Each animal in Group 2 received prepared compound (45) by oral dose administration at a target dose level of 1.0 mg/kg and at a dose volume of 2 mL/kg (Table 24). Whole blood samples (0.250 mL; K2EDTA anticoagulant) were collected from each animal through a jugular vein catheter. Whole blood samples were collected from all animals pre-dose, and at 0.25, 0.5, 1, 2, 4, 8, 16, and 24 hours after dose administration. All blood samples were immediately placed on ice until processing. Whole blood samples were centrifuged at 2200×g for 10 minutes in a refrigerated centrifuge (5±3° C.) to isolate plasma. The plasma samples were transferred to individual polypropylene vials and immediately placed on dry ice before storage at nominally −20±5° C. The plasma samples some time later were then thawed and extracted and analyzed by high pressure liquid chromatography (HPLC) coupled to Mass Spectrometery (MS) (Table 25). Pharmacokinetic parameters (Table 25) were estimated using WinNonlin® pharmacokinetic software (Version No. 5.2.1) using a non-compartmental approach consistent with the PO route of administration.

[5] = biological target: Catalytic domain of MMP-9 (human recombinant) (Homo sapiens (Human), UniProt P14780); experiment: MMP-9 inhibition assay; format: biochemical; details: compound 10 microMolar; substrate DNP-Pro-Cha-Gly-Cys(Me)-His-Ala-Lys(N-Me-Abz)-NH2 10 microMolar; <50% considered not active; read-out: Average Percent Inhibition MMP-9
Catalytic domain of MMP-9 (human recombinant), sequence (P14780 107-444): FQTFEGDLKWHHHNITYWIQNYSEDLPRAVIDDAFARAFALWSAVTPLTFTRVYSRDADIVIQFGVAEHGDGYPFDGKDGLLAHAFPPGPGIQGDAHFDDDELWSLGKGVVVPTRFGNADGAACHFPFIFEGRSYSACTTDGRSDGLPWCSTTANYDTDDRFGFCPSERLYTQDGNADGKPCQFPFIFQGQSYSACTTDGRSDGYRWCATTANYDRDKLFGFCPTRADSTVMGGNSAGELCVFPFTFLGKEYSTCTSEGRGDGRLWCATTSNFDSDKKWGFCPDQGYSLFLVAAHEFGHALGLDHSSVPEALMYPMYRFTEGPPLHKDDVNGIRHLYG
Description: A concentration of MMP inhibitor of the present invention was tested (10 microMolar) in duplicate runs. Catalytic domain of MMP-9 (human recombinant) enzyme (10 nanoMolar) was added to the compound solution. The mixture of enzyme and compound in assay buffer was then thoroughly mixed and incubated for 60 minutes at 37° C. Upon the completion of incubation, the assay was started by the addition of 10 μM of fluorescent substrate DNP-Pro-Cha-Gly-Cys(Me)-His-Ala-Lys(N-Me-Abz)-NH2 [Cha=β-cyclohexylalanyl; Abz=2-aminobenzoyl(anthraniloyl)] (Kd ˜7 microMolar). […] Any inhibition <50% is considered not active under these assay conditions.

[6] = biological target: Catalytic domain of MMP-1 (human recombinant) (Homo sapiens (Human), UniProt P03956); experiment: MMP-1 inhibition assay; format: biochemical; details: compound 10 microMolar; substrate 10 microMolar; <50% considered not active; read-out: Average Percent Inhibition MMP-1
Catalytic domain of MMP-1 (human recombinant), sequence (P03956 98-276): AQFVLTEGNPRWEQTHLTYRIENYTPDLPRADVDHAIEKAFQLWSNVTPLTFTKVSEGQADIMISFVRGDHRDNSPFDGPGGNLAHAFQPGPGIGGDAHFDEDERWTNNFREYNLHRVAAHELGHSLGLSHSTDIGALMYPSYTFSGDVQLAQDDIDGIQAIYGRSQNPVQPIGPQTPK

[7] = biological target: Catalytic domain of MMP-3 (human recombinant) (Homo sapiens (Human), UniProt P08254); experiment: MMP-3 inhibition assay; format: biochemical; details: compound 10 microMolar; substrate McaRPKPVENvalWRK(Dnp)NH2 10 microMolar; <50% considered not active; read-out: Average Percent Inhibition MMP-3
Catalytic domain of MMP-3 (human recombinant), sequence (P08254 100-272): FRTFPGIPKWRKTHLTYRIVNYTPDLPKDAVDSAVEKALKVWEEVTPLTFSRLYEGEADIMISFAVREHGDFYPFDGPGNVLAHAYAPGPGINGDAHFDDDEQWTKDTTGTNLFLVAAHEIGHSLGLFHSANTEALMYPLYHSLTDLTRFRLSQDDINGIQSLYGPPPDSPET
Description: Catalytic domain of MMP-3 (human recombinant) enzyme was then added to the compound solution. […] A positive control was then run separately using the broad spectrum MMP inhibitor Tyr-hydroxamic acid as a control compound. […]

MMP-12 = MMP-12 (Homo sapiens (Human), UniProt P39900); experiment: MMP-12 inhibition assay (electrophoretic mobility shift); format: biochemical; details: compound 10 microMolar; Fluorescein-labeled peptide 4 microMolar; <50% considered not active; read-out: Average Percent Inhibition MMP-12
MMP-12, sequence (P39900 106-470, species assumed): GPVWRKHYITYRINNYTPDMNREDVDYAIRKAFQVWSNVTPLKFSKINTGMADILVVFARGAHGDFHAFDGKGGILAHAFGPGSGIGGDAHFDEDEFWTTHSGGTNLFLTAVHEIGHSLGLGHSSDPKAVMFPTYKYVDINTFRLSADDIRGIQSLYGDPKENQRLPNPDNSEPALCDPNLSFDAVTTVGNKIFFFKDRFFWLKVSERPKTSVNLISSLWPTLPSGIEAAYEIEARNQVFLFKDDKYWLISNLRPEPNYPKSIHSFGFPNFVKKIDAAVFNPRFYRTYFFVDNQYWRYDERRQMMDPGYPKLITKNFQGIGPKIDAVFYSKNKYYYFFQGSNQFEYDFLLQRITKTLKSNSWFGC
Description: MMP-12 inhibitor activity was carried out by first separating the cleaved and uncleaved substrates by charge via electrophoretic mobility shift and then measuring the fluorescence of the separated products and comparing them with control reactions to determine inhibition of enzyme activity. The MMP-12 assay was then run using an assay buffer comprising of 100 mM HEPES, pH 7.5, 0.01% Brij-35, 1.5 mM NaCl and 2 mM CaCl2. […] The reaction was started by first adding the substrate and then incubating the reaction mixture for 1 hour at room temperature. The reaction was then terminated via the addition of a stop buffer consisting of 100 mM HEPES (pH 7.5), 30 mM EDTA, 0.015% Brij-35, and 5% DMSO. […]

[8] = biological target: Catalytic domain of MMP-2 (human recombinant) (Homo sapiens (Human), UniProt P08253); experiment: MMP-2 inhibition assay; details: read-out: Average Percent Inhibition MMP-2
Catalytic domain of MMP-2 (human recombinant), sequence (P08253 110-465): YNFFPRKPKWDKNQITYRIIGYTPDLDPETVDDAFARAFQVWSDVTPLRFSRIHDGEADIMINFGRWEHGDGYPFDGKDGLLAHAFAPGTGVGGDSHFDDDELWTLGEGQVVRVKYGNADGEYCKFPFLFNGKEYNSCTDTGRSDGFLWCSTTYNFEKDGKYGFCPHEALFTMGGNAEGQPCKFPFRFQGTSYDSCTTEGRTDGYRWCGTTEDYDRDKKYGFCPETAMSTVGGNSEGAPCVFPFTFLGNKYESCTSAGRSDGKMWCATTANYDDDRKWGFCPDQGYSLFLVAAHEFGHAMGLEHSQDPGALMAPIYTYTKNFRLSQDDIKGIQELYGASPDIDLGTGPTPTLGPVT
Description: A concentration of MMP inhibitor of the present invention was tested (10 microMolar) in duplicate runs. Catalytic domain of MMP-2 (human recombinant) enzyme (10 nanoMolar) was added to the compound solution. The mixture of enzyme and compound in assay buffer was then thoroughly mixed and incubated for 60 minutes at 37° C. Upon the completion of incubation, the assay was then started by the addition of 10 μM of fluorescent substrate Mca-P-L-G-L-Dpa-A-R-NH2 (Kd ˜8 microMolar). The fluorescent product, McaPLG, was then measured at excitation of 355 nm and emission 405 nm by an automatic plate multireader at 37° C. […] Any inhibition <50% is considered not active under these assay conditions.

[9] = clinical; cited from earlier work

Cc1cc(CNC(=O)c2cc(C(=O)NCc3ccc(F)c(C)c3)ncn2)ccc1F [drawing 269]
Mean Remaining Parent with NADPH (%) [1]: 5.3%

[2H]C([2H])(NC(=O)c1cc(C(=O)NC([2H])([2H])c2ccc(F)c(C)c2)ncn1)c1ccc(F)c(C)c1 [drawing 277]
% Mean Remaining Parent with NADPH (%) [2]: 1.7%

[2H]C([2H])(NC(=O)c1cc(C(=O)NCc2ccc(C(=O)O)cc2)ncn1)c1ccc(F)c(C)c1 [drawing 272]
% Mean Remaining Parent with NADPH (%) [2]: 87.4%

[2H]C([2H])(NC(=O)c1cc(C(=O)NCc2ccc(-c3nn[nH]n3)cc2)ncn1)c1cccc(OC)c1 [drawing 283]
inhibition at 1 µM ([3]; read-out: Average Percent Inhibition MMP-13): 92%

Cc1cc(CNC(=O)c2cc(C(=O)NCc3ccc(C(=O)O)cc3)ncn2)ccc1F [drawing 271]
% Mean Remaining Parent with NADPH (%) [2]: 90.7%

COc1cccc(CNC(=O)c2cc(C(=O)NCc3ccc(-c4nnn[nH]4)cc3)ncn2)c1 [drawing 267]
Mean Remaining Parent with NADPH (%) [1]: 88.1%

[2H]C([2H])(NC(=O)c1cc(C(=O)NCc2ccc(C(=O)O)cc2)ncn1)c1ccc(F)c(C)c1 [drawing 266]
Mean Remaining Parent with NADPH (%) [1]: 95.6%

COc1cccc(CNC(=O)c2cc(C(=O)NCc3ccc(-c4nnn[nH]4)cc3)ncn2)c1 [drawing 274]
% Mean Remaining Parent with NADPH (%) [2]: 52.8%

[2H]C([2H])(NC(=O)c1cc(C(=O)NCc2ccc(F)c(C)c2)ncn1)c1ccc(C(=O)O)cc1 [drawing 285]
pIC50 [3]: > 7.00

Cc1cc(CNC(=O)c2cc(C(=O)NCc3ccc(C(=O)O)cc3)ncn2)ccc1F [Compound 45, 4-({[6-(4-Fluoro-3-methyl-benzylcarbamoyl)-pyrimidine-4-carbonyl]-amino}-methyl)-benzoic acid]
AUC(0-inf) [4]: 428 ng·h/mL
AUC(0-t) [4]: 414 ng·h/mL
Cmax [4]: 310 ng/mL
Tmax [4]: 24.6 min
half-life [4]: 110 min

[2H]C([2H])(NC(=O)c1cc(C(=O)NCc2ccc(F)c(C)c2)ncn1)c1ccc(C(=O)O)cc1 [Compound 56, 4-(Dideutero-{[6-(4-fluoro-3-methyl-benzylcarbamoyl)-pyrimidine-4-carbonyl]-amino}-methyl)-benzoic acid]
AUC(0-inf) [4]: 705 ng·h/mL
AUC(0-t) [4]: 697 ng·h/mL
Cmax [4]: 362 ng/mL
Tmax [4]: 45 min
half-life [4]: 73.2 min

[2H]C([2H])(NC(=O)c1cc(C(=O)NCc2ccc(C(=O)O)cc2)ncn1)c1ccc(F)c(C)c1 [drawing 279]
inhibition at 10 µM [5]: 2.39%

[2H]C([2H])(NC(=O)c1cc(C(=O)NCc2ccc(C(=O)O)cc2)ncn1)c1ccc(F)c(C)c1 [drawing 284]
pIC50 [3]: > 7.00

[2H]C([2H])(NC(=O)c1cc(C(=O)NCc2ccc(F)c(C)c2)ncn1)c1ccc(C(=O)O)cc1 [drawing 265]
Mean Remaining Parent with NADPH (%) [1]: 104%

[2H]C([2H])(NC(=O)c1cc(C(=O)NCc2ccc(-c3nn[nH]n3)cc2)ncn1)c1cccc(OC)c1 [drawing 275]
% Mean Remaining Parent with NADPH (%) [2]: 57.4%

Cc1cc(CNC(=O)c2cc(C(=O)NCc3ccc(C(=O)O)cc3)ncn2)ccc1F [drawing 264]
Mean Remaining Parent with NADPH (%) [1]: 103%

[2H]C([2H])(NC(=O)c1cc(C(=O)NCc2cccc(OC)c2)ncn1)c1ccc(C(=O)O)cc1
pIC50 [3]: > 7.00

[2H]C([2H])(NC(=O)c1cc(C(=O)NCc2ccc(C(=O)O)cc2)ncn1)c1ccc(F)c(C)c1 [drawing 280]
inhibition at 10 µM [6]: 1.83%

[2H]C([2H])(NC(=O)c1cc(C(=O)NCc2ccc(C(=O)O)cc2)ncn1)c1ccc(F)c(C)c1 [drawing 281]
inhibition at 10 µM [7]: 1.31%

[2H]C([2H])(NC(=O)c1cc(C(=O)NCc2ccc(C(=O)O)cc2)ncn1)c1ccc(F)c(C)c1 [drawing 282]
inhibition at 10 µM (MMP-12): 0.68%

[2H]C([2H])(NC(=O)c1cc(C(=O)NCc2ccc(C(=O)O)cc2)ncn1)c1ccc(F)c(C)c1 [drawing 278]
inhibition at 10 µM [8]: 8.19%

[2H]C([2H])(NC(=O)c1cc(C(=O)NCc2ccc(-c3nn[nH]n3)cc2)ncn1)c1cccc(OC)c1 [drawing 268]
Mean Remaining Parent with NADPH (%) [1]: 95.3%

CNC(=O)[C@@H](NC(=O)[C@H](CC(C)C)[C@H](O)C(=O)NO)C(C)(C)C [Marimastat, marimastat]
Toxicities in humans [9]: time-dependent and dose-dependent musculoskeletal toxicities (arthralgia, myalgia, tendinitis)

[2H]C([2H])(NC(=O)c1cc(C(=O)NC([2H])([2H])c2ccc(F)c(C)c2)ncn1)c1ccc(F)c(C)c1 [drawing 270]
Mean Remaining Parent with NADPH (%) [1]: 5.5%

Cc1cc(CNC(=O)c2cc(C(=O)NCc3ccc(F)c(C)c3)ncn2)ccc1F [drawing 276]
% Mean Remaining Parent with NADPH (%) [2]: 0.6%

[2H]C([2H])(NC(=O)c1cc(C(=O)NCc2ccc(F)c(C)c2)ncn1)c1ccc(C(=O)O)cc1 [drawing 273]
% Mean Remaining Parent with NADPH (%) [2]: 98.5%
